Patent US9556201B2, “Bicyclic pyridines and analogs as sirtuin modulators” (GLAXOSMITHKLINE LLC, priority 2009, dated 2017)

Target: T1, SIRT1 (Homo sapiens, UniProt Q96EB6)
T1 sequence (Q96EB6 1-747): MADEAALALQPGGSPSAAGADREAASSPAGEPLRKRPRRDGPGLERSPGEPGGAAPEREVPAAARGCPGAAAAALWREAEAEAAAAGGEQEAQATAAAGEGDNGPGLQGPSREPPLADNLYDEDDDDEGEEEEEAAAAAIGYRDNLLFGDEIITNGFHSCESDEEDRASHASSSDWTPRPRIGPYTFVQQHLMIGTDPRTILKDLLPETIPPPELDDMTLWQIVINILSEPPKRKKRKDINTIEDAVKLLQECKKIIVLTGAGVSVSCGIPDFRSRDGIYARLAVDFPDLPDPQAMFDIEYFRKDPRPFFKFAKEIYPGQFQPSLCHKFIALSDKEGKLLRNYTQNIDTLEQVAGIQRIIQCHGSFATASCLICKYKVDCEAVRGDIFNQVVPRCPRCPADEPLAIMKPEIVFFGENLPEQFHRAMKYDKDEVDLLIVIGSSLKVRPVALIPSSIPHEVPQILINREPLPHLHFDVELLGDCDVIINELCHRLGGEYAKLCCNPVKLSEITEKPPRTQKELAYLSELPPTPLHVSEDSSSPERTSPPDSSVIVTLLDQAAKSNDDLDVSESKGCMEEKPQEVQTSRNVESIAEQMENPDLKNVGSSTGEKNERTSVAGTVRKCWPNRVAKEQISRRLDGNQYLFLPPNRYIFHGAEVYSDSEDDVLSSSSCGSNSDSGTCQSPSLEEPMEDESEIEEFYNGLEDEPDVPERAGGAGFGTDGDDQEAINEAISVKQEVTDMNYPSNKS
Assay: Mass spectrometry based assay to identify modulators of SIRT1 activity (deacetylation of p53-based acetylated peptide substrate)
Format: biochemical
Conditions: for Emax: 25 min, SIRT1 activation, read-out: % FOLD ACT. (percent maximum fold activation)
How it was run: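 Deacetylation of a modified p53 acetyl-lysine peptide ([…], 5TMR-labelled, Nle for Met) by 10 nM N-His SIRT1 with 120 μM βNAD+, pH 8, 25 min, 25 °C. Substrate and product masses measured by MS after formic acid quench; nicotinamide defines maximal inhibition.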

SMILES | EC1.5 (concentration giving 1.5-fold activation) | Emax | % FOLD ACT. (percent maximum fold activation)
O=C(Nc1ccncc1F)N1CCC(F)(F)c2ccc(-c3cccc(C(F)(F)F)c3)nc21 [Compound 746] | 1 to 25 µM | ≤ 200% | –
O=C1CCCN(C(=O)Nc2cccnc2)c2nc(-c3cccc(Cl)c3)ccc21 [Compound 747, 2-(3-chlorophenyl)-5-oxo-N-(pyridin-3-yl)-7,8-dihydro-5H-pyrido[2,3-b]azepine-9(6H)-carboxamide] | 1 to 25 µM | > 200% | –
O=C(Nc1ccnc(N2CCC2)c1)N1CCOc2ncc(-c3cccc(C(F)(F)F)c3)nc21 [Compound 748] | < 1 µM | > 200% | –
O=C(Nc1ccncc1)N1CCOc2c(N3CCNCC3)nc(-c3cccc(F)c3)nc21 [Compound 751] | 1 to 25 µM | – | B (Fold Activation≦200%)
Cc1cc(NC(=O)N2CCOc3c(N4CCNCC4)nc(-c4cccc(F)c4)nc32)cc(C)n1 [Compound 752] | 1 to 25 µM | > 200% | –
O=C(Nc1cncnc1)N1CCC(F)(F)c2ccc(-c3cccc(C(F)(F)F)c3)nc21 [Compound 753] | 1 to 25 µM | > 200% | –
O=C(Nc1ccccn1)N1CCCCc2ccc(-c3cccc(Cl)c3)nc21 [Compound 754] | 1 to 25 µM | ≤ 200% | –
O=C(Nc1ccncn1)N1CCCCc2ccc(-c3cccc(Cl)c3)nc21 [Compound 755] | 1 to 25 µM | > 200% | –
O=C1CCCN(C(=O)Nc2ccncc2)c2nc(-c3cccc(Cl)c3)ccc21 [Compound 756] | 1 to 25 µM | > 200% | –
CN(C)c1nc(-c2cccc(F)c2)nc2c1OCCN2C(=O)Nc1ccncn1 [Compound 757] | > 25 µM | ≤ 200% | –
O=C(Nc1ccncn1)N1CCOc2c(N3CCOCC3)nc(-c3cccc(F)c3)nc21 [Compound 758] | > 25 µM | ≤ 200% | –
O=C(Nc1ccncn1)N1CCOc2c(N3CCNCC3)nc(-c3cccc(F)c3)nc21 [Compound 759] | 1 to 25 µM | > 200% | –
CC1(C)CN(C(=O)Nc2ccccn2)c2nc(-c3cccc(F)c3)ccc2O1 [Compound 760] | 1 to 25 µM | > 200% | –
O=C(Nc1ccccn1)N1CCCOc2ccc(-c3cccc(Cl)c3)nc21 [Compound 761] | 1 to 25 µM | > 200% | –
O=C(Nc1ccc(F)cn1)N1CCCOc2ccc(-c3cccc(Cl)c3)nc21 [Compound 762] | 1 to 25 µM | ≤ 200% | –
Cc1ccnc(NC(=O)N2CCCOc3ccc(-c4cccc(Cl)c4)nc32)c1 [Compound 763] | 1 to 25 µM | > 200% | –
CCN1C(=O)CCN(C(=O)Nc2ccccn2)c2nc(-c3cccc(Cl)c3)ccc21 [Compound 765, 7-(3-chlorophenyl)-1-ethyl-2-oxo-N-(pyridin-2-yl)-3,4-dihydro-1H-pyrido[2,3-b][1,4]diazepine-5(2H)-carboxamide] | > 25 µM | ≤ 200% | –
O=C1CCCN(C(=O)Nc2ccncc2F)c2nc(-c3cccc(Cl)c3)ccc21 [Compound 767] | 1 to 25 µM | ≤ 200% | –
O=C1CCCN(C(=O)Nc2ccccn2)c2nc(-c3cccc(Cl)c3)ccc21 [Compound 768] | < 1 µM | > 200% | –
O=C(Nc1ccncc1F)N1CCCOc2ccc(-c3cccc(Cl)c3)nc21 [Compound 769] | 1 to 25 µM | > 200% | –
O=C(Nc1ccncc1)N1CCCC(F)(F)c2ccc(-c3cccc(Cl)c3)nc21 [Compound 770] | > 25 µM | ≤ 200% | –
O=C(Nc1cccnc1)N1CCCC(F)(F)c2ccc(-c3cccc(Cl)c3)nc21 [Compound 771] | > 25 µM | ≤ 200% | –
Cc1cc(NC(=O)N2CCCC(F)(F)c3ccc(-c4cccc(Cl)c4)nc32)cc(C)n1 [Compound 772] | 1 to 25 µM | > 200% | –
Cc1cc(NC(=O)N2CCCC(F)(F)c3ccc(-c4cccc(Cl)c4)nc32)ccn1 [Compound 773] | 1 to 25 µM | > 200% | –

SMILES | EC1.5 (concentration giving 1.5-fold activation) | Emax | % FOLD ACT. (percent maximum fold activation)
CCN1C(=O)CCN(C(=O)Nc2ccncc2F)c2nc(-c3cccc(Cl)c3)ccc21 [Compound 774] | > 25 µM | ≤ 200% | –
CCN1C(=O)CCN(C(=O)Nc2ccncn2)c2nc(-c3cccc(Cl)c3)ccc21 [Compound 775] | > 25 µM | ≤ 200% | –
CCN1C(=O)CCN(C(=O)Nc2cccc(C)n2)c2nc(-c3cccc(Cl)c3)ccc21 [Compound 776] | > 25 µM | ≤ 200% | –
CCN1CCCN(C(=O)Nc2ccncc2)c2nc(-c3cccc(Cl)c3)ccc21 [Compound 777] | 1 to 25 µM | > 200% | –
O=C(Nc1ccccn1)N1CCCC(F)(F)c2ccc(-c3cccc(Cl)c3)nc21 [Compound 778] | > 25 µM | ≤ 200% | –
Cc1csc(NC(=O)N2CCCC(F)(F)c3ccc(-c4cccc(Cl)c4)nc32)n1 [Compound 779] | > 25 µM | ≤ 200% | –
Cc1cccc(NC(=O)N2CCCC(F)(F)c3ccc(-c4cccc(Cl)c4)nc32)n1 [Compound 780] | > 25 µM | ≤ 200% | –
O=C(Nc1cccc(OC[C@H](O)CO)n1)N1CCCC(F)(F)c2ccc(-c3cccc(Cl)c3)nc21 [Compound 781] | 1 to 25 µM | > 200% | –
O=C(Nc1ccncc1F)N1CCCC(F)(F)c2ccc(-c3cccc(Cl)c3)nc21 [Compound 782] | > 25 µM | ≤ 200% | –
CC1(C)CCN(C(=O)Nc2ccccn2)c2nc(-c3cccc(Cl)c3)ccc2C1=O [Compound 783] | > 25 µM | ≤ 200% | –
Cc1cnccc1NC(=O)N1CCC(C)c2ccc(-c3cccc(C(F)(F)F)c3)nc21 (stereo not drawn) [Compound 784] | 1 to 25 µM | > 200% | –
CC1CCN(C(=O)Nc2ccccn2)c2nc(-c3cccc(C(F)(F)F)c3)ccc21 (stereo not drawn) [Compound 785, 4-methyl-N-(pyridin-2-yl)-7-(3-(trifluoromethyl)phenyl)-3,4-dihydro-1,8-naphthyridine-1(2H)-carboxamide] | < 1 µM | > 200% | –
CCN1C(=O)CCN(C(=O)Nc2cccc(OC[C@@H](O)CO)n2)c2nc(-c3cccc(Cl)c3)ccc21 [Compound 788] | > 25 µM | ≤ 200% | –
CCN1CCCN(C(=O)Nc2cccnc2)c2nc(-c3cccc(Cl)c3)ccc21 [Compound 789, 7-(3-chlorophenyl)-1-ethyl-N-(pyridin-3-yl)-3,4-dihydro-1H-pyrido[2,3-b][1,4]diazepine-5(2H)-carboxamide] | 1 to 25 µM | > 200% | –
CCN1CCCN(C(=O)Nc2ccccn2)c2nc(-c3cccc(Cl)c3)ccc21 [Compound 790] | > 25 µM | ≤ 200% | –
CCN1C(=O)CCN(C(=O)Nc2ccc(F)cn2)c2nc(-c3cccc(Cl)c3)ccc21 [Compound 791] | > 25 µM | ≤ 200% | –
CCN1C(=O)CCN(C(=O)Nc2ccnc(OC)n2)c2nc(-c3cccc(Cl)c3)ccc21 [Compound 792] | > 25 µM | ≤ 200% | –
CCN1CCCN(C(=O)Nc2cccc(OC[C@@H](O)CO)n2)c2nc(-c3cccc(Cl)c3)ccc21 [Compound 796] | 1 to 25 µM | > 200% | –
CCN1CCCN(C(=O)Nc2cccc(C)n2)c2nc(-c3cccc(Cl)c3)ccc21 [Compound 797] | > 25 µM | ≤ 200% | –
O=C(Nc1ccc(F)cn1)N1CCCC(F)(F)c2ccc(-c3cccc(Cl)c3)nc21 [Compound 798] | > 25 µM | ≤ 200% | –
O=C(Nc1ccncn1)N1CCCC(F)(F)c2ccc(-c3cccc(Cl)c3)nc21 [Compound 799, 2-(3-chlorophenyl)-5,5-difluoro-N-(pyrimidin-4-yl)-7,8-dihydro-5H-pyrido[2,3-b]azepine-9(6H)-carboxamide] | 1 to 25 µM | ≤ 200% | –
CC1CCN(C(=O)Nc2cncnc2)c2nc(-c3cccc(C(F)(F)F)c3)ccc21 (stereo not drawn) [Compound 802] | < 1 µM | > 200% | –
CC1CCN(C(=O)Nc2ncccc2F)c2nc(-c3cccc(C(F)(F)F)c3)ccc21 (stereo not drawn) [Compound 803] | 1 to 25 µM | > 200% | –
CCN1CCCN(C(=O)Nc2cc(C)cc(C)n2)c2nc(-c3cccc(Cl)c3)ccc21 [Compound 806] | > 25 µM | ≤ 200% | –
